Laboratory results published in ChEMBL document CHEMBL5390290, “Discovery of Anti-SARS-CoV-2 Nsp9 Binders from Natural Products by a Native Mass Spectrometry Approach” (J Nat Prod, 2023).
pKd: −log10 of the molar value. The source made the active and inactive calls. The calls are words filed in the database; no cut-off is given here.

What was measured:
[1] = target: Replicase polyprotein 1ab (Severe acute respiratory syndrome coronavirus 2) (UniProt P0DTD1); assay: Binding affinity to recombinant SARS-CoV-2 Nsp9 at 10 uM by Mass spectrometry analysis relative to control
[2] = target: Replicase polyprotein 1ab (Severe acute respiratory syndrome coronavirus 2) (UniProt P0DTD1); assay: Binding affinity to recombinant SARS-CoV-2 Nsp9 at 50 uM by Mass spectrometry analysis relative to control
[3] = target: Replicase polyprotein 1ab (Severe acute respiratory syndrome coronavirus 2) (UniProt P0DTD1); assay: Binding affinity to recombinant SARS-CoV-2 Nsp9 at 10 to 50 uM by Mass spectrometry analysis; settings: dose 10-50 µM
[4] = target: Replicase polyprotein 1ab (Severe acute respiratory syndrome coronavirus 2) (UniProt P0DTD1); assay: Binding affinity to recombinant SARS-CoV-2 Nsp9 at 50 uM by Mass spectrometry analysis
[5] = target: Replicase polyprotein 1ab (Severe acute respiratory syndrome coronavirus 2) (UniProt P0DTD1); assay: Binding affinity to SARS-CoV-2 Nsp9 at 25 uM by LC-MS/MS analysis relative to control
[6] = target: Replicase polyprotein 1ab (Severe acute respiratory syndrome coronavirus 2, UniProt P0DTD1); assay: Binding affinity to recombinant SARS-CoV-2 Nsp9 assessed as dissociation constant by Mass spectrometry analysis

| Compound | Activity [1] [%] | Activity [2] [%] | Activity [3] | other results |
| --- | --- | --- | --- | --- |
| C=C1[C@H]2CC[C@H]3[C@@]45CO[C@](O)([C@@H](O)[C@@H]4C(C)(C)CC[C@@H]5O)[C@@]3([C@@H]1O)[C@@H]2O | 2 | 16 | – | – |
| C=C1C(=O)[C@]23[C@H](O)[C@@H]1CC[C@H]2[C@@]12C(O)[C@@]3(O)C(=O)[C@@H]1C(C)(C)CC[C@@H]2O (stereo partly drawn) | 0.05 | 0.38 | – | – |
| C=C1C[C@]23C4C5N(C)C[C@]6(C)C[C@H](O)C[C@@]5([C@@H]2[C@H](OC(=O)c2ccc(O)cc2)[C@H](OC(=O)/C(C)=C/C)[C@H]14)[C@]6(O)[C@@H](O)[C@@H]3O (stereo partly drawn) | – | – | inactive | – |
| C=C1C(=O)[C@]23[C@@H](O)[C@H]1CC[C@H]2[C@@]12COC3(O)C[C@@H]1C(C)(C)CC[C@@H]2O | 0 | 0.04 | – | – |
| C=C1[C@@H]2C[C@@]3([C@@H]1O)[C@@H](CC2=O)[C@@]12[C@@H]4[C@@H]3C[C@@H]1[C@@](C)(CC[C@@H]2O)CN4CC | – | – | inactive | – |
| C=C1C(=O)[C@]23[C@H](O)[C@@H]1[C@@H](O)C[C@H]2[C@]12CCCC(C)(C)[C@H]1[C@H](O)[C@@]3(O)OC2 | 0 | 0 | inactive | – |
| C=C1C[C@]23C[C@@]1(O)CC[C@H]2[C@@]12C=C[C@H](O)[C@](C)(C(=O)O1)[C@H]2[C@@H]3C(=O)O | – | – | – | Activity [4]: Active |
| C=C1C(=O)[C@]23[C@H](O)[C@@H]1CC[C@H]2[C@@]12CO[C@@]3(O)[C@@H](O)[C@@H]1C(C)(C)CC[C@@H]2O | 0.71 | 1 | – | Activity [5]: Active |
| C=C1C[C@]23C4C5N(C)C[C@]6(C)C[C@H](O)C[C@@]5([C@@H]2[C@H](OC(=O)/C(C)=C/CO)[C@H](OC(=O)/C(C)=C/C)[C@H]14)[C@]6(O)[C@@H](O)[C@@H]3O (stereo partly drawn) | – | – | inactive | – |
| C=C1C(=O)[C@]23[C@H](O)[C@@H]1C[C@@H](O)[C@H]2[C@]12CCCC(C)(C)[C@H]1[C@H](O)[C@@]3(O)OC2 | 0.15 | 0.89 | – | – |
| C=C1C[C@]23C4C5N(C)C[C@]6(C)C[C@H](O)C[C@@]5([C@@H]2[C@H](OC(=O)/C(C)=C/C)[C@H](OC(=O)/C(C)=C/C)[C@H]14)[C@]6(O)[C@@H](O)[C@@H]3O (stereo partly drawn) | – | – | inactive | – |
| C=C1C(=O)[C@@]23[C@H]4O[C@H]5O[C@]2(O)[C@@H](O)[C@@H]2C(C)(C)CC[C@H](O)[C@]52[C@@H]3CC[C@H]14 | 0.27 | 1 | – | – |
| CC(C)[C@]1(O)C(OC(=O)c2ccc[nH]2)[C@@]2(O)[C@@]3(C)C[C@]4(O)O[C@@]5([C@H](O)[C@@H](C)CC[C@]35O)[C@@]2(O)[C@@]14C (stereo partly drawn) | – | – | – | pKd [6]: 4.32; Activity [5]: Active |
